From US11312727B1, “Macrocyclic flu endonuclease inhibitors” (Janssen BioPharma, Inc., priority 2018, dated 2022)

Legend:
in vitro = settings: human, CC50, uninfected A549 cells, CellTiter-Glo
[1] = system: Influenza strain A549 A/WSN/33 (H1N1); assay: microbe, parasite or virus in culture; type: cell-based; settings: Influenza A virus, A549, 20 h, A549 cells, influenza A/WSN/33 (H1N1), 20 hours incubation; read-out: A549_A(H1N1) EC50

In the case of `CC[C@@H]1/C=C/COc2ccccc2[C@H](c2ccccc2)N2CN1C(=O)c1c(O)c(=O)ccn12` [Compound 39AA, (9R,18S,E)-9-ethyl-12-hydroxy-18-phenyl-6,9-dihydro-18H-10,17-methanobenzo[b]pyrido[1,2-f][1]oxa[5,6,9]triazacyclotridecine-11,13-dione], the CC50 (in vitro) is reported as greater than 2 µM and the EC50 [1] is reported as greater than 1 µM.
Work on `CC[C@H]1/C=C/COc2ccccc2[C@H](c2ccccc2)N2CN1C(=O)c1c(O)c(=O)ccn12` [Compound 39AB, (9S,18S,E)-9-ethyl-12-hydroxy-18-phenyl-6,9-dihydro-18H-10,17-methanobenzo[b]pyrido[1,2-f][1]oxa[5,6,9]triazacyclotridecine-11,13-dione] yielded a CC50 (in vitro) greater than 2 µM and an EC50 [1] greater than 1 µM.
Work on `CC[C@@H]1/C=C/COc2ccccc2[C@@H](c2ccccc2)N2CN1C(=O)c1c(O)c(=O)ccn12` [Compound 39BA, (9R,18R,E)-9-ethyl-12-hydroxy-18-phenyl-6,9-dihydro-18H-10,17-methanobenzo[b]pyrido[1,2-f][1]oxa[5,6,9]triazacyclotridecine-11,13-dione] yielded a CC50 (in vitro) greater than 0.2 µM and an EC50 [1] of 0.006 µM.
Work on `CC[C@H]1/C=C/COc2ccccc2[C@@H](c2ccccc2)N2CN1C(=O)c1c(O)c(=O)ccn12` [Compound 39BB, (9S,18R,E)-9-ethyl-12-hydroxy-18-phenyl-6,9-dihydro-18H-10,17-methanobenzo[b]pyrido[1,2-f][1]oxa[5,6,9]triazacyclotridecine-11,13-dione] yielded a CC50 (in vitro) greater than 2 µM and an EC50 [1] of 0.007 µM.
For `O=C1c2c(O)c(=O)ccn2N2CN1C/C=C/CCc1ccccc1[C@H]2c1ccccn1` [Compound 43A, (17S,E)-4-hydroxy-16-(pyridin-2-yl)-7,10,11,16-tetrahydro-6,17-methanobenzo[k]pyrido[1,2-b][1,2,5]triazacyclotridecine-3,5-dione], the CC50 (in vitro) was greater than 2 µM and the EC50 [1] was 0.022 µM.
`O=C1c2c(O)c(=O)ccn2N2CN1C/C=C/CCc1ccccc1[C@@H]2c1ccccn1` [Compound 43B, (17R,E)-4-hydroxy-16-(pyridin-2-yl)-7,10,11,16-tetrahydro-6,17-methanobenzo[k]pyrido[1,2-b][1,2,5]triazacyclotridecine-3,5-dione] gave a CC50 (in vitro) greater than 2 µM and an EC50 [1] greater than 1 µM.
Work on `O=C1c2c(O)c(=O)ccn2N2CN1C/C=C\COc1cccc3c1[C@@H]2c1ccccc1SC3` [Compound 46A, (21R,Z)-16-hydroxy-6,10,13,21a-tetrahydro-7,8-(epiprop[1]en[1]yl[3]ylidene)-14,21-methanobenzo[6,7]thiepino[4,5-c]pyrido[1,2-f][1]oxa[5,6,9]triazacyclotridecine-15,17-dione] yielded a CC50 (in vitro) greater than 2 µM and an EC50 [1] of 0.064 µM.
Compound `O=C1c2c(O)c(=O)ccn2N2CN1C/C=C\COc1cccc3c1[C@H]2c1ccccc1SC3` [Compound 46B, (21S,Z)-16-hydroxy-6,10,13,21a-tetrahydro-7,8-(epiprop[1]en[1]yl[3]ylidene)-14,21-methanobenzo[6,7]thiepino[4,5-c]pyrido[1,2-f][1]oxa[5,6,9]triazacyclotridecine-15,17-dione] has a CC50 (in vitro) greater than 0.1 µM and an EC50 [1] of 0.003 µM.
In the case of `O=C1c2c(O)c(=O)ccn2N2CN1C/C=C/COc1cccc3c1[C@@H]2c1ccccc1SC3` [Compound 46C, (17R,E)-12-hydroxy-2,6,9,17a-tetrahydro-3,4-(epiprop[1]en[1]yl[3]ylidene)-10,17-methanobenzo[6,7]thiepino[4,5-c]pyrido[1,2-f][1]oxa[5,6,9]triazacyclotridecine-11,13-dione], the CC50 (in vitro) is reported as greater than 2 µM and the EC50 [1] is reported as 0.33 µM.
Work on `O=C1c2c(O)c(=O)ccn2N2CN1C/C=C/COc1cccc3c1[C@H]2c1ccccc1SC3` [Compound 46D, (17S,E)-12-hydroxy-2,6,9,17a-tetrahydro-3,4-(epiprop[1]en[1]yl[3]ylidene)-10,17-methanobenzo[6,7]thiepino[4,5-c]pyrido[1,2-f][1]oxa[5,6,9]triazacyclotridecine-11,13-dione] yielded a CC50 (in vitro) greater than 0.2 µM and an EC50 [1] of 0.001 µM.
Work on `O=C1c2c(O)c(=O)ccn2N2CN1CCCCCOc1cccc3c1C2c1ccccc1SC3` (centres unmarked) [Compound 48] yielded a CC50 (in vitro) greater than 2 µM and an EC50 [1] of 0.032 µM.
In the case of `CN1Cc2ccccc2C(c2ccccc2)N2CN(CCC1=O)C(=O)c1c(O)c(=O)ccn12` (centres unmarked) [Compound 50, 12-hydroxy-6-methyl-18-phenyl-5,8,9,18-tetrahydro-10,17-methanobenzo[k]pyrido[1,2-b][1,2,5,9]tetraazacyclotridecine-7,11,13(6H)-trione], the CC50 (in vitro) is reported as greater than 2 µM and the EC50 [1] is reported as greater than 1 µM.
With `O=C1c2c(O)c(=O)ccn2N2CN1CC/C=C\c1ccccc1C2c1ccccc1` (centres unmarked) [Compound 54, (*Z)-4-hydroxy-15-phenyl-8,15-dihydro-7H-6,16-methanobenzo[j]pyrido[1,2-b][1,2,5]triazacyclododecine-3,5-dione] the CC50 (in vitro) was greater than 20 µM and the EC50 [1] was 0.117 µM.
For `O=C1c2c(O)c(=O)ccn2N2CN1CCCCCCOc1ccccc1C2c1ccccc1` (centres unmarked) [Compound 55, 15-hydroxy-2-phenyl-12,13,14,16-tetrahydro-11H-4-oxa-1(1,3)-pyrido[2,1-f][1,2,4]triazina-3(1,2)-benzenacyclodecaphane-14,16-dione], the CC50 (in vitro) was greater than 2 µM and the EC50 [1] was 0.88 µM.
With `O=C1c2c(O)c(=O)ccn2N2CN1C/C=C\CCCOc1ccccc1C2c1ccccc1` (centres unmarked) [Compound 60, (*Z)-15-hydroxy-2-phenyl-12,13,14,16-tetrahydro-11H-4-oxa-1(1,3)-pyrido[2,1-f][1,2,4]triazina-3(1,2)-benzenacyclodecaphan-8-ene-14,16-dione] the CC50 (in vitro) was greater than 2 µM and the EC50 [1] was greater than 1 µM.
`O=C1c2c(O)c(=O)ccn2N2CN1CC/C=C\c1cccc3c1C2c1ccccc1CC3` (centres unmarked) [Compound 73, (11*Z)-6-hydroxy-10,16,17,21b-tetrahydro-9H-1,8-methanobenzo[4,5]cyclohepta[1,2,3-op]pyrido[1,2-c][2,3,6]benzotriazacyclododecine-5,7-dione] showed a CC50 (in vitro) greater than 2 µM and an EC50 [1] of 0.016 µM.
In the case of `O=C1c2c(O)c(=O)ccn2N2CN1C1(/C=C/COc3ccccc3[C@@H]2c2ccccc2)CC1` [Compound 79A, (18'S,E)-12′-hydroxy-18′-phenyl-6′H,18′H-spiro[cyclopropane-1,9′-[10,17]methanobenzo[b]pyrido[1,2-f][1]oxa[5,6,9]triazacyclotridecine]-11′,13′-dione], the CC50 (in vitro) is reported as greater than 1 µM and the EC50 [1] is reported as greater than 0.5 µM.
Work on `O=C1c2c(O)c(=O)ccn2N2CN1C1(/C=C/COc3ccccc3[C@H]2c2ccccc2)CC1` [Compound 79B, (18′R,E)-12′-hydroxy-18′-phenyl-6′H,18′H-spiro[cyclopropane-1,9′-[10,17]methanobenzo[b]pyrido[1,2-f][1]oxa[5,6,9]triazacyclotridecine]-11′,13′-dione] yielded a CC50 (in vitro) greater than 1 µM and an EC50 [1] of 0.006 µM.
For `O=C1c2c(O)c(=O)ccn2N2CN1C/C=C/COc1cccc3c1[C@H]2c1ccccc1S(=O)(=O)C3` [Compound 82, (17aS,E)-12-hydroxy-2,6,9,17a-tetrahydro-3,4-(epiprop[1]en[1]yl[3]ylidene)-10,17-methanobenzo[6,7]thiepino[4,5-c]pyrido[1,2-f][1]oxa[5,6,9]triazacyclotridecine-11,13-dione 1,1-dioxide], the CC50 (in vitro) was greater than 1 µM and the EC50 [1] was 0.071 µM.
`O=C1c2c(O)c(=O)ccn2N2CN1C[C@H]1C[C@@H]1COc1cccc3c1[C@H]2c1ccccc1SC3` [Compound 87BA, (1aS,11bS,20aS)-17-hydroxy-1a,2,6,11b,20,20a-hexahydro-1H-5,4-(epiprop[1]en[1]yl[3]ylidene)-12,19-methanobenzo[6,7]thiepino[4,5-c]cyclopropa[k]pyrido[1,2-f][1]oxa[5,6,9]triazacyclotridecine-16,18-dione] gave a CC50 (in vitro) greater than 0.2 µM and an EC50 [1] of 0.004 µM.
In the case of `O=C1c2c(O)c(=O)ccn2N2CN1C[C@@H]1C[C@H]1COc1cccc3c1[C@H]2c1ccccc1SC3` [Compound 87BB, (1aR,11bS,20aR)-17-hydroxy-1a,2,6,11b,20,20a-hexahydro-1H-5,4-(epiprop[1]en[1]yl[3]ylidene)-12,19-methanobenzo[6,7]thiepino[4,5-c]cyclopropa[k]pyrido[1,2-f][1]oxa[5,6,9]triazacyclotridecine-16,18-dione], the CC50 (in vitro) is reported as greater than 0.2 µM and the EC50 [1] is reported as 0.004 µM.
Work on `CC[C@H]1/C=C\COc2cccc3c2[C@H](c2ccccc2SC3)N2CN1C(=O)c1c(O)c(=O)ccn12` [Compound 92AA, (13S,21aR,Z)-13-ethyl-16-hydroxy-6,10,13,21a-tetrahydro-7,8-(epiprop[1]en[1]yl[3]ylidene)-14,21-methanobenzo[6,7]thiepino[4,5-c]pyrido[1,2-f][1]oxa[5,6,9]triazacyclotridecine-15,17-dione] yielded a CC50 (in vitro) greater than 1 µM and an EC50 [1] of 0.108 µM.
With `CC[C@@H]1/C=C/COc2cccc3c2[C@H](c2ccccc2SC3)N2CN1C(=O)c1c(O)c(=O)ccn12` [Compound 92AB, (9R,17aR,E)-9-ethyl-12-hydroxy-2,6,9,17a-tetrahydro-3,4-(epiprop[1]en[1]yl[3]ylidene)-10,17-methanobenzo[6,7]thiepino[4,5-c]pyrido[1,2-f][1]oxa[5,6,9]triazacyclotridecine-11,13-dione] the CC50 (in vitro) was greater than 1 µM and the EC50 [1] was greater than 0.5 µM.
With `CC[C@@H]1/C=C\COc2cccc3c2[C@@H](c2ccccc2SC3)N2CN1C(=O)c1c(O)c(=O)ccn12` [Compound 92BB, (13R,21aS,Z)-13-ethyl-16-hydroxy-6,10,13,21a-tetrahydro-7,8-(epiprop[1]en[1]yl[3]ylidene)-14,21-methanobenzo[6,7]thiepino[4,5-c]pyrido[1,2-f][1]oxa[5,6,9]triazacyclotridecine-15,17-dione] the CC50 (in vitro) was greater than 0.1 µM and the EC50 [1] was 0.0015 µM.
In the case of `CC[C@H]1/C=C/COc2c(ccc(F)c2F)[C@@H](c2ccccc2)N2CN1C(=O)c1c(O)c(=O)ccn12` [Compound 101AA, (9S,18R,E)-9-ethyl-3,4-difluoro-12-hydroxy-18-phenyl-6,9-dihydro-18H-10,17-methanobenzo[b]pyrido[1,2-f][1]oxa[5,6,9]triazacyclotridecine-11,13-dione], the CC50 (in vitro) is reported as greater than 0.1 µM and the EC50 [1] is reported as 0.0007 µM.
